Patent US9101138B2, “Methods and compositions utilizing lactams derived from camphor, verbenone or cat thyme oil for repelling blood-sucking and biting insects, ticks and mites” (The United States of America, as represented by the …, priority 2013, dated 2015)

Columns and labels:
Type in all cases: in vivo
Aedes aegypti = assay: Free choice assay against mosquitoes (feeding deterrence assay in glove box); conditions: treated membrane over human blood, 20 min; for EC50: median effective dose to repel 50% of mosquitoes
Experimental: Free Choice Assay against mosquitoes (compact repellency): Mosquitoes used were nulliparous female Aedes aegypti (Red eye Liverpool strain). They were laboratory-reared and maintained at 27° C. and 80% RH under a photoperiod of 12:12 (L:D) h by using standard mosquito rearing procedures (Rutledge, C. C., et al., J. Med. Entomol., 14: 536-541 (1978)). Larvae were fed a diet of ground tropical fish flakes and adults were fed a 10% sucrose solution. Adult female mosquitoes used for experimentation were between 5 and 15 d old and starved (provided only water) for 24 h before testing. The test system consisted of a mosquito blood-feeder, a constant-temperature water circulator (to maintain the temperature of the blood at 37° C.) and a specially designed cage. The mosquito blood-feeder contained five circular blood reservoirs, each of which was filled with outdated human blood titrated with adenosine triphosphate. The wells were then covered with sausage membrane and secured using high vacuum grease. Absolute ethanol was used as a solvent and diluent for candidate repellents. Each diluted repellent solution was then randomly applied to the membrane surface at concentrations of 0.02, 0.04, 0.08 and 0.16 mg/cm^2. A separate membrane covered well served as a control. 250 mosquitoes were exposed to the treated membranes on the blood reservoirs ad libitum by opening the sliding door in the floor of the test cage. The number of mosquitoes feeding on each well was counted and noted at two-minute intervals for 20 minutes using the total number of feeding mosquitoes as a response. Each test was replicated for a minimum of four times to obtain a statistically valid sample size for analysis. The median effective dose to repel 50% of the mosquito test population was then calculated by the method of Goldstein (Goldstein, A., et al., 1974. Principles of Drug Action: The Basis of Pharmacology, 2nd ed., John Wiley and Sons, New York, N.Y., 854 p) (chemical sensitivity levels calculated from the dose-response regression equation) for single curves with graded responses. Significant differences were then determined by comparing the 95% confidence level among effective doses.

[1] = tested on: Sand Fly (Phlebotomus papatasi); assay: Sand fly blood-feeding assay for testing repellents and feeding deterrents; conditions: 2 h; for Mean % Feeding / Mean % Inhibition: n = 3; for effectiveness (comparison between compounds): sand fly blood feeding
From the text: Sand Fly (Phlebotomus papatasi) blood-feeding assay for testing repellents and feeding deterrents: A pig intestine-based membrane feeing system (Watnaporn, D., et al., Proceedings of VIIIth Sir Dorabjee Tata International Symposium: Arthropod born viral infections-Current status and research, Pages 417-424, 2008) has been used for blood-feeding of female sand flies in colony maintenance. The same technique has been used for testing repellency and antifeeding effects of several new compounds. A circular area of the fabric mesh on top of the test container that matches the size of the glass feeder was treated with the test compound by applying the test solution using a Q-tip. After a group of 30 females and 15 males was placed into the test container, a glass feeder filled with cow blood was placed on top of the treated area in the center of the fabric mesh that was secured on top of the container. Sand flies were allowed to feed for 2 h before the number of blood-fed females was in each feeding container counted.
Female sand flies in the untreated control achieved a 32% to 61% blood feeding rate during the test period (2 h) when a group of 30 females and 15 males was placed in a feeding pot and fed through a fine mesh screen using an artificial membrane feeding system (Table 1 [?]).

[2] = tested on: adult lone star ticks, Amblyomma americanum; assay: Tick repellency: vertical filter paper bioassay; conditions: for % repelled: ticks exposed 10-15 minutes after application
Experimental: Tick repellency: Vertical filter paper bioassay against adult lone star ticks, Amblyomma americanum, and nymphs was conducted with selected lactams, lactones and ketones. Adult ticks were exposed 10-15 minutes after application of the candidate compounds. Repellency was measured in % repelled from the treated surface at various concentrations.

Aedes aegypti females = assay: Feeding deterrency assay utilising K&D module; conditions: 25 nmol\cm^2
Experimental: Feeding Deterrency assay utilising K&D module (Klun, J. A., and M. Debboun, J. Med. Entomol., 37: 177-181 (2000); Klun, J. A., et al., 40: 293-299 (2003)): Test compounds were bioassayed for their feeding deterrency against Aedes aegypti females in K&D module assay. […] Feeding deterrency was evaluated as proportion feeding. Ethanol was used as control.

Molecule	EC50 (Aedes aegypti) [mg/cm^2]	EC95 (Aedes aegypti) [mg/cm^2]	Mean % Feeding ([1]; concentration 0.001%) [%]	Mean % Inhibition ([1]; concentration 0.001%) [%]	Mean % Feeding ([1]; concentration 0.01%) [%]	Mean % Inhibition ([1]; concentration 0.01%) [%]	% repelled ([2]; Conc. 125 ug) [%]	% repelled ([2]; Conc. 500 ug) [%]	% repelled ([2]; Conc. 2000 ug) [%]	% not biting (Aedes aegypti females) [%]	mean bites\6 (Aedes aegypti females)	total Bites\120 (Aedes aegypti females)	further results
CC12CCC(CNC1=O)C2(C)C (centres unmarked) [Compound 1, Camphor lactam]	0.0355	0.166	2.2	97.0	0.0	100.0	26.7	66.7	73.3	91	0.55	11	Mean % Feeding ([1]; concentration 0.00001%): 6.7%; Mean % Inhibition ([1]; concentration 0.00001%): 90.9%; Mean % Feeding ([1]; concentration 0.0001%): 3.3%; Mean % Inhibition ([1]; concentration 0.0001%): 95.5%
CCCN1CC2CCC(C)(C1=O)C2(C)C (centres unmarked) [Compound 1a, N-propyl camphor lactam]	0.0282	0.102	1.1	98.5	0.0	100.0	26.7	100	93.3	96	0.25	5	Mean % Feeding ([1]; concentration 0.00001%): 5.6%; Mean % Inhibition ([1]; concentration 0.00001%): 92.4%; Mean % Feeding ([1]; concentration 0.0001%): 6.7%; Mean % Inhibition ([1]; concentration 0.0001%): 90.9%
C=C1CNC(=O)C2C(C)CCC12 (centres unmarked) [Compound 3, Dolicho (C) lactam]	0.0322	0.173	–	–	–	–	–	–	–	92	0.5	10	effectiveness (comparison between compounds) [1]: more effective than dolicholactone
C=C1CN(CCC)C(=O)C2C(C)CCC12 (centres unmarked) [Compound 3a, N-propyl dolicho-C-lactam]	0.0317	0.117	25.6	65.1	17.8	75.8	83.6	100	100	98	0.15	3	Mean % Feeding ([1]; concentration 0.02%): 8.9%; Mean % Inhibition ([1]; concentration 0.02%): 87.9%; Mean % Feeding ([1]; concentration 0.04%): 5.6%; Mean % Inhibition ([1]; concentration 0.04%): 92.4%; effectiveness (comparison between compounds) [1]: more effective than dolicholactam; % repelled ([2]; Conc. 63 ug): 20%
C=C1COC(=O)[C@H]2[C@@H]1CC[C@@H]2C [Compound 5, Dolicholactone (C)]	–	–	–	–	–	–	–	–	–	89	0.7	14	–
C=C1C(=O)OC[C@H]2[C@@H]1CC[C@@H]2C [Compound 6, Dolicho lactone (D)]	–	–	–	–	–	–	–	–	–	87	0.8	16	–
CC(C)=CCCC(C)C1C=CC(=O)CC1 (centres unmarked) [Compound 7a, 4-(1,5-Dimethylhex-4-enyl)cyclohex-2-en-1-one]	–	–	–	–	–	–	73.3	96.7	82.5	–	–	–	% repelled ([2]; Conc. 31 ug): 20%; % repelled ([2]; Conc. 63 ug): 53.3%; lowest concentration at which adult ticks were repelled ([2]; filter paper bioassay): 31 µg
CCN(CC)C(=O)c1cccc(C)c1 [DEET, N,N-diethyl-m-toluamide, reference compound]	–	–	–	–	–	–	5	68.3	95.7	94	0.4	8	repellency ([2]; at 125 and 64 ug concentrations): failed to repel ticks
N-propyl dihydro verbenone lactam [Compound 2a]	0.0561	0.264	–	–	–	–	–	–	–	92	0.5	10	–
